From patent publication US12516331B2, “Monocyte-specific aptamers and uses thereof for enhancing drug delivery to cancer” (Academia Sinica, priority 2020, dated 2026)

Columns and labels:
[1] = test system: mouse endothelial cell line SVEC; experiment: Flow cytometry binding of Cy5-labeled aptamers to endothelial cell line SVEC (negative selection); conditions: 200 nM Cy5-aptamer, 4° C., 30 minutes, flow cytometry (FIG. 2A)
Description: (§1) To confirm that J10, but not S2, was capable of binding selectively to monocytes in vitro, the J10 and S2 aptamers were first labeled with the fluorescent labeling reagent Cy5 ((2Z)-2-[(2E,4E)-5-[1-(5-Carboxypentyl)-3,3-dimethyl-5-sulfoindol-1-ium-2-yl]penta-2,4-dienylidene]-1-ethyl-3,3-dimethylindole-5-sulfonate) and then incubated with monocyte cells lines RAW264.7 and J774A.1. Cy5-labeled J10 and S2 were also incubated with the mouse endothelial cell line SVEC which was used as a negative selection. In brief, 5×10^5 of each selected cell line was pre-mixed in a bloc king buffer (20% FBS and 10% salmon sperm DNA in PBS) at 4° C. for 30 minutes. After that, the cells were reacted with 200 nM Cy5-J10 or Cy5-S2 in the blocking buffer at 4° C. for 30 minutes. Finally, the sample was subjected to flow cytometry using standard protocols known in the art. […] Together, the data in FIGS. 2A and 2B confirmed that J10, but not S2, was capable of binding selectively to monocytes in vitro and being carried to the injured site in vivo.

[2] = test system: circulating myeloid cells (CD45+ CD11b+ cells); experiment: Ex vivo binding of Cy5-aptamer to peripheral blood cells by flow cytometry; set-up: species or system mouse; conditions: peripheral blood of healthy mice, 2 μM Cy5-Apt, 30 minutes at 4° C. (FIG. 2D)
Description: To test ex vivo binding specificity and affinity, 100 μL peripheral blood from healthy mice was withdrawn via the submandibular vein, collected in EDTA-containing anticoagulant tubes (BD Vacutainer), and incubated with 2 mL ACK lysing buffer for 10 minutes to lyse the red blood cells. After that, 2% FBS in PBS was added to stop the reaction. Following centrifugation (300 g for 3 minutes at 4° C.) the supernatants were removed. One million cells were blocked by CD16/CD32 Fc blocking antibody (1:100) after incubation for 20 minutes. Then the cells were stained for CD45 (PE-Cy7; 1:100 Biolegend), CD11b (PE; 1:200 Biolegend) and 2 μM Cy5-Apt for 30 minutes at 4° C. Finally, the cells were washed by 2% FBS in PBS and subjected to flow cytometry using standard protocols known in the art.

[3] = test system: human monocyte cell line THP-1; experiment: Flow cytometry binding of Cy5-labeled aptamers to human monocyte cell line THP-1; conditions: THP-1 cells, 200 nM Cy5-aptamer, 4° C., 30 minutes (FIG. 3)
Description: (§2) To confirm that J10 binding, but not S2 binding, was selective to human monocytes in vitro, Cy5-labeled J10 and S2 were also incubated with the human monocyte cell lines, THP-1 and U937, and human umbilical cord endothelial cells (HUVEC), which were used as a negative control. In brief, 5×10^5 of each selected cell line was pre-mixed in a bloc king buffer (20% FBS and 10% salmon sperm DNA in PBS) at 4° C. for 30 minutes. After that, the cells were reacted with 200 nM Cy5-J10 or Cy5-S2 in the blocking buffer at 4° C. for 30 minutes. Finally, the sample was subjected to flow cytometry using standard protocols known in the art.

[4] = PCR analysis of aptamer targeting to the injured site in the mouse cardiac ischemia reperfusion (I/R) model; assay type: in vivo; conditions: intravenous injection, mouse cardiac I/R model (FIG. 2B)
Text: FIGS. 2A-2D include diagrams depicting the specificity of J10 aptamer to monocytes. FIG. 2A: depicts a graph showing the amount of Cy5-labeled J10 aptamer and Cy5-labeled S2 aptamer in the monocyte cells lines RAW264.7 and J774A.1 and the mouse endothelial cell line SVEC as measured by flow cytometry. Mouse endothelial cell line SVEC was used as a negative selection. The S2 aptamer had the same nucleotide composition as J10 aptamer but randomized the sequence. Two-way ANOVA with a Tukey adjustment was used to analyze the data where *P<0.05; **P<0.01; ***P<0.001 were significant. FIG. 2B: Top panel depicts images showing the accumulating amount of J10 and S2 aptamers in infarct area of the injured hearts as measured by PCR. Bottom panel depicts quantification of PCR results. Unpaired Student's t-test was used to analyze the data where *P<0.05; **P<0.01; ***P<0.001 were significant. FIG. 2C: depicts images showing in vivo targeting of in vivo targeting of S2 aptamer-QD655 (top panel) J10 aptamer-QD655 (bottom panel) to circulating CX3CR1-GFP^+ monocytes via intravital imaging. The aptamer was conjugated with quantum dots QD655. Scale bars shown represent 100 μm. FIG. 2D: depicts a graph showing ex vivo targeting of J10 aptamer against circulating monocytes examined with flow cytometry to analyse the amount of Cy5-J10 associated with CD45^+ and CD11b^+ cells isolated from peripheral blood. […]

[5] = test system: J774A.1 (murine monocyte cell line); experiment: Flow cytometry binding of Cy5-labeled aptamers to monocyte cell line J774A.1; set-up: species or system mouse; conditions: J774A.1 cells, 200 nM Cy5-aptamer, 4° C., 30 minutes, flow cytometry (FIG. 2A)
Description: as §1

[6] = test system: human monocyte cell line U937; experiment: Flow cytometry binding of Cy5-labeled aptamers to human monocyte cell line U937; conditions: U937 cells, 200 nM Cy5-aptamer, 4° C., 30 minutes (FIG. 3)
Description: as §2

[7] = test system: RAW264.7 (murine monocyte cell line); experiment: Flow cytometry binding of Cy5-labeled aptamers to monocyte cell line RAW264.7; set-up: species or system mouse; conditions: RAW264.7 cells, 200 nM Cy5-aptamer, 4° C., 30 minutes, flow cytometry (FIG. 2A)
Description: as §1

Substance: J10: monocyte-targeting DNA aptamer identified by cell-SELEX; sequence in Table 1; Cy5-labeled for flow cytometry (DNA CAATAGAGTCGTACAGGTCGACGCT; Cy5-labeled DNA aptamer, label position not given here) [Aptamer J10]
- detection of Cy5-labeled aptamer in endothelial cells [1]: no detection
- ex vivo affinity to CD45+ CD11b+ cells [2]: high affinity
- binding affinity (flow cytometry) [3]: high binding affinity
- in vivo targeting to the injured site (PCR) [4]: confirmed in vivo targeting ability
- percentage of Cy5-labeled monocytes [5]: significantly higher than the percentage of Cy5-labeled S2 monocytes
- binding affinity (flow cytometry) [6]: high binding affinity
- percentage of Cy5-labeled monocytes [7]: significantly higher than the percentage of Cy5-labeled S2 monocytes
